Oligonucleotides are written 5' to 3', each unit as a sugar letter and its base; * is a phosphorothioate linkage, no mark a phosphodiester; rarer units and linkages stand in square brackets, end groups in braces. Plain capitals give the bases only. e = 2'-O-(2-methoxyethyl) (MOE); [5mC] = 5-methylcytosine; d = 2'-deoxy (DNA)
System: mouse glucose-6-phosphatase translocase mRNA
Test: Antisense inhibition of mouse glucose-6-phosphatase translocase mRNA in primary mouse hepatocytes, 50 nM (Table 5)
Type: cell-based
Conditions: 50 nM oligonucleotide, mRNA by real-time PCR, normalized with RIBOGREEN
Protocol: Primary mouse hepatocytes were prepared from CD-1 mice purchased from Charles River Labs. Primary mouse hepatocytes were routinely cultured in Hepatocyte Attachment Media supplemented with 10% fetal bovine serum (Invitrogen Life Technologies, Carlsbad, Calif.), 250 nM dexamethasone, and 10 nM bovine insulin (Sigma-Aldrich, St. Louis, Mo.). Cells were seeded into 96-well plates (Falcon-Primaria #353872, BD Biosciences, Bedford, Mass.) at a density of approximately 4,000-6,000 cells/well for use in oligomeric compound transfection experiments.
Quantitation of glucose 6-phosphatase translocase mRNA levels was accomplished by real-time quantitative PCR using the ABI PRISM™ 7600, 7700, or 7900 Sequence Detection System (PE-Applied Biosystems, Foster City, Calif.) according to manufacturer's instructions.
Prior to quantitative PCR analysis, primer-probe sets specific to the target gene being measured were evaluated for their ability to be “multiplexed” with a GAPDH amplification reaction. After isolation the RNA is subjected to sequential reverse transcriptase (RT) reaction and real-time PCR, both of which are performed in the same well. RT and PCR reagents were obtained from Invitrogen Life Technologies (Carlsbad, Calif.). […] The RT reaction was carried out by incubation for 30 minutes at 48° C. Following a 10 minute incubation at 95° C. to activate the PLATINUM® Taq, 40 cycles of a two-step PCR protocol were carried out: 95° C. for 15 seconds (denaturation) followed by 60° C. for 1.5 minutes (annealing/extension).
Gene target quantities obtained by RT, real-time PCR were normalized using either the expression level of GAPDH, a gene whose expression is constant, or by quantifying total RNA using RiboGreen™ (Molecular Probes, Inc. Eugene, Oreg.). GAPDH expression was quantified by RT, real-time PCR, by being run simultaneously with the target, multiplexing, or separately. Total RNA was quantified using RiboGreen™ RNA quantification reagent (Molecular Probes, Inc. Eugene, Oreg.).
A series of oligomeric compounds was designed to target different regions of mouse glucose-6-phosphatase translocase, using published sequences cited in Table 1. All compounds in Table 5 are chimeric oligonucleotides (“gapmers”) 20 nucleotides in length, composed of a central “gap” region consisting of 10 2′-deoxynucleotides, which is flanked on both sides (5′ and 3′) by five-nucleotide “wings”. The wings are composed of 2′-O-(2-methoxyethyl) nucleotides, also known as 2′-MOE nucleotides. The internucleoside (backbone) linkages are phosphorothioate throughout the oligonucleotide. All cytidine residues are 5-methylcytidines. The compounds were analyzed for their effect on gene target mRNA levels by quantitative real-time PCR as described in other examples herein, using the following primer-probe set designed to hybridize to mouse glucose-6-phosphatase translocase: • forward primer: […] (SEQ ID NO: 66) • reverse primer: CCATCCCAGCCATCATGAG (SEQ ID NO: 67) and the PCR probe was: FAM-[…]-TAMRA (SEQ ID NO: 68) where FAM is the fluorescent reporter dye and TAMRA is the quencher dye. Mouse target gene quantities were normalized by quantifying total RNA using RIBOGREEN™.
Data are from experiments in which primary mouse hepatocytes were treated with 50 nM of the antisense oligonucleotides of the present invention. A reduction in expression is expressed as percent inhibition in Table 5. If present, “N.D.” indicates “not determined”. The target regions to which these oligomeric compounds are inhibitory are herein referred to as “validated target segments.”

Row | Sequence | % Inhib [%]
1 | AAACGTAAAGGTTCTGTGTT (eA*eA*eA*e[5mC]*eG*dT*dA*dA*dA*dG*dG*dT*dT*d[5mC]*dT*eG*eT*eG*eT*eT; antisense) [ISIS 148990] | 16
2 | AACCAGGATCCAGATCTTGG (eA*eA*e[5mC]*e[5mC]*eA*dG*dG*dA*dT*d[5mC]*d[5mC]*dA*dG*dA*dT*e[5mC]*eT*eT*eG*eG; antisense) [ISIS 148976] | 48
3 | AAGGCCTCCGACCTCGAGGG (eA*eA*eG*eG*e[5mC]*d[5mC]*dT*d[5mC]*d[5mC]*dG*dA*d[5mC]*d[5mC]*dT*d[5mC]*eG*eA*eG*eG*eG; antisense) [ISIS 148967] | 34
4 | AAGTCGGTTTGCCCTCTATA (eA*eA*eG*eT*e[5mC]*dG*dG*dT*dT*dT*dG*d[5mC]*d[5mC]*d[5mC]*dT*e[5mC]*eT*eA*eT*eA; antisense) [ISIS 149007] | 64
5 | AATGCTTCCTACAAGGCCTC (eA*eA*eT*eG*e[5mC]*dT*dT*d[5mC]*d[5mC]*dT*dA*d[5mC]*dA*dA*dG*eG*e[5mC]*e[5mC]*eT*e[5mC]; antisense) [ISIS 148968] | 26
6 | ACAAAGGAGAAGGTTTTGCG (eA*e[5mC]*eA*eA*eA*dG*dG*dA*dG*dA*dA*dG*dG*dT*dT*eT*eT*eG*e[5mC]*eG; antisense) [ISIS 148943] | 47
7 | ACAACTGTGCTGGCTCCACA (eA*e[5mC]*eA*eA*e[5mC]*dT*dG*dT*dG*d[5mC]*dT*dG*dG*d[5mC]*dT*e[5mC]*e[5mC]*eA*e[5mC]*eA; antisense) [ISIS 148982] | 69
8 | ACAGAGACAGCCCTGCCTTC (eA*e[5mC]*eA*eG*eA*dG*dA*d[5mC]*dA*dG*d[5mC]*d[5mC]*d[5mC]*dT*dG*e[5mC]*e[5mC]*eT*eT*e[5mC]; antisense) [ISIS 148970] | 78
9 | ACAGGGCCAGTGTGCTGCGC (eA*e[5mC]*eA*eG*eG*dG*d[5mC]*d[5mC]*dA*dG*dT*dG*dT*dG*d[5mC]*eT*eG*e[5mC]*eG*e[5mC]; antisense) [ISIS 148958] | 50
10 | ACCCACAAGGGCGGACTGCC (eA*e[5mC]*e[5mC]*e[5mC]*eA*d[5mC]*dA*dA*dG*dG*dG*d[5mC]*dG*dG*dA*e[5mC]*eT*eG*e[5mC]*e[5mC]; antisense) [ISIS 148964] | 0
11 | AGACCACAAGGTAGCCAGTG (eA*eG*eA*e[5mC]*e[5mC]*dA*d[5mC]*dA*dA*dG*dG*dT*dA*dG*d[5mC]*e[5mC]*eA*eG*eT*eG; antisense) [ISIS 148961] | 36
12 | AGCCATCATGAGTAGCAATA (eA*eG*e[5mC]*e[5mC]*eA*dT*d[5mC]*dA*dT*dG*dA*dG*dT*dA*dG*e[5mC]*eA*eA*eT*eA; antisense) [ISIS 148973] | 35
13 | AGCCCCTGTGCCAGACCATT (eA*eG*e[5mC]*e[5mC]*e[5mC]*d[5mC]*dT*dG*dT*dG*d[5mC]*d[5mC]*dA*dG*dA*e[5mC]*e[5mC]*eA*eT*eT; antisense) [ISIS 148953] | 58
14 | AGGGTATTCATGAGAGTGGT (eA*eG*eG*eG*eT*dA*dT*dT*d[5mC]*dA*dT*dG*dA*dG*dA*eG*eT*eG*eG*eT; antisense) [ISIS 149006] | 36
15 | AGGTTCTGTGTTAGCCAGAG (eA*eG*eG*eT*eT*d[5mC]*dT*dG*dT*dG*dT*dT*dA*dG*d[5mC]*e[5mC]*eA*eG*eA*eG; antisense) [ISIS 148989] | 58
16 | ATAGGCCGTGGCGAGGGTTC (eA*eT*eA*eG*eG*d[5mC]*d[5mC]*dG*dT*dG*dG*d[5mC]*dG*dA*dG*eG*eG*eT*eT*e[5mC]; antisense) [ISIS 148972] | 36
17 | ATCTTGGGTGAGTCACTGGT (eA*eT*e[5mC]*eT*eT*dG*dG*dG*dT*dG*dA*dG*dT*d[5mC]*dA*e[5mC]*eT*eG*eG*eT; antisense) [ISIS 148975] | 42
18 | ATGAGAGGTTCCACACAAGT (eA*eT*eG*eA*eG*dA*dG*dG*dT*dT*d[5mC]*d[5mC]*dA*d[5mC]*dA*e[5mC]*eA*eA*eG*eT; antisense) [ISIS 148979] | 54

Row | Sequence | % Inhib [%]
19 | ATGGAGTCTAGAACCAAACG (eA*eT*eG*eG*eA*dG*dT*d[5mC]*dT*dA*dG*dA*dA*d[5mC]*d[5mC]*eA*eA*eA*e[5mC]*eG; antisense) [ISIS 148995] | 56
20 | CACAGAAACGTAAAGGTTCT (e[5mC]*eA*e[5mC]*eA*eG*dA*dA*dA*d[5mC]*dG*dT*dA*dA*dA*dG*eG*eT*eT*e[5mC]*eT; antisense) [ISIS 148991] | 22
21 | CACAGACTCTTGACTGCTCC (e[5mC]*eA*e[5mC]*eA*eG*dA*d[5mC]*dT*d[5mC]*dT*dT*dG*dA*d[5mC]*dT*eG*e[5mC]*eT*e[5mC]*e[5mC]; antisense) [ISIS 148939] | 41
22 | CACGGCTCCCAAAACCAGGA (e[5mC]*eA*e[5mC]*eG*eG*d[5mC]*dT*d[5mC]*d[5mC]*d[5mC]*dA*dA*dA*dA*d[5mC]*e[5mC]*eA*eG*eG*eA; antisense) [ISIS 148977] | 9
23 | CAGAGCGATCTCATCCACCA (e[5mC]*eA*eG*eA*eG*d[5mC]*dG*dA*dT*d[5mC]*dT*d[5mC]*dA*dT*d[5mC]*e[5mC]*eA*e[5mC]*e[5mC]*eA; antisense) [ISIS 148944] | 35
24 | CAGAGGGTCCAGATTTCGGA (e[5mC]*eA*eG*eA*eG*dG*dG*dT*d[5mC]*d[5mC]*dA*dG*dA*dT*dT*eT*e[5mC]*eG*eG*eA; antisense) [ISIS 148959] | −6
25 | CCAAACTGGGATGGCTCAAA (e[5mC]*e[5mC]*eA*eA*eA*d[5mC]*dT*dG*dG*dG*dA*dT*dG*dG*d[5mC]*eT*e[5mC]*eA*eA*eA; antisense) [ISIS 148954] | 48
26 | CCAAACTTCCAGCCAGGTTC (e[5mC]*e[5mC]*eA*eA*eA*d[5mC]*dT*dT*d[5mC]*d[5mC]*dA*dG*d[5mC]*d[5mC]*dA*eG*eG*eT*eT*e[5mC]; antisense) [ISIS 148956] | 27
27 | CCACAGGCCATTAATACTCA (e[5mC]*e[5mC]*eA*e[5mC]*eA*dG*dG*d[5mC]*d[5mC]*dA*dT*dT*dA*dA*dT*eA*e[5mC]*eT*e[5mC]*eA; antisense) [ISIS 148999] | 45
28 | CCAGTGGACAGCACCCAGAG (e[5mC]*e[5mC]*eA*eG*eT*dG*dG*dA*d[5mC]*dA*dG*d[5mC]*dA*d[5mC]*d[5mC]*e[5mC]*eA*eG*eA*eG; antisense) [ISIS 148960] | 28
29 | CCATTAAGAAACCAAGGAGC (e[5mC]*e[5mC]*eA*eT*eT*dA*dA*dG*dA*dA*dA*d[5mC]*d[5mC]*dA*dA*eG*eG*eA*eG*e[5mC]; antisense) [ISIS 148952] | 20
30 | CCGTAGCCTTGGGCTGCCAT (e[5mC]*e[5mC]*eG*eT*eA*dG*d[5mC]*d[5mC]*dT*dT*dG*dG*dG*d[5mC]*dT*eG*e[5mC]*e[5mC]*eA*eT; antisense) [ISIS 148941] | 62
31 | CCGTGTCCTGCCAGTAAGGC (e[5mC]*e[5mC]*eG*eT*eG*dT*d[5mC]*d[5mC]*dT*dG*d[5mC]*d[5mC]*dA*dG*dT*eA*eA*eG*eG*e[5mC]; antisense) [ISIS 148986] | 55
32 | CCTAGGAGAAGAAGAAGGGT (e[5mC]*e[5mC]*eT*eA*eG*dG*dA*dG*dA*dA*dG*dA*dA*dG*dA*eA*eG*eG*eG*eT; antisense) [ISIS 148998] | 21
33 | CGAGGGTTCCCATACAGAGA (e[5mC]*eG*eA*eG*eG*dG*dT*dT*d[5mC]*d[5mC]*d[5mC]*dA*dT*dA*d[5mC]*eA*eG*eA*eG*eA; antisense) [ISIS 148971] | 88
34 | CGCCATGGCCCTGTCTGACA (e[5mC]*eG*e[5mC]*e[5mC]*eA*dT*dG*dG*d[5mC]*d[5mC]*d[5mC]*dT*dG*dT*d[5mC]*eT*eG*eA*e[5mC]*eA; antisense) [ISIS 148969] | 24
35 | CGTCATCATTTTAAATAGAG (e[5mC]*eG*eT*e[5mC]*eA*dT*d[5mC]*dA*dT*dT*dT*dT*dA*dA*dA*eT*eA*eG*eA*eG; antisense) [ISIS 148994] | 10
